Among the data in patent US11020395B2, “Cycloalkyl substituted triazole compounds as agonists of the APJ receptor” (AMGEN INC., priority 2016, dated 2021) are EC50 values, retold here.

In the test the target is human APJ receptor (Homo sapiens (Human), UniProt P35414). The test can be described thus: [35S]GTPγS binding assay on membranes from CHO cells stably expressing human APJ receptor. It is filed as biochemical. As to conditions: [35S]GTPγS SPA, read-out: Activity hAPJ SPA EC50 IP. As to the method: [^35S]GTPγS Binding The human APJ receptor was cloned by polymerase chain reaction and the gene encoding the receptor was subcloned in pFLAG-CMV™-3 expression vector (Sigma, Saint Louis, Mo. USA) in-house at Amgen. A GTPγS binding assay was performed on membranes prepared from CHO cells stably expressing human APJ receptor. The optimum experimental conditions for the concentrations of GDP, MgCl2, and NaCl in the assay buffer were initially determined. […] Incubation was at RT for 90 min and the microplate was read using a ViewLux™ ultra HTS Microplate Imager (PerkinElmer, Inc.). All the results presented are means of several independent experiments and analyzed by non-linear regression methods using the commercially available program Prism (GraphPad, San Diego, Calif.) providing the EC50 values detailed in Table 25.
Chain of human APJ receptor (P35414 whole entry): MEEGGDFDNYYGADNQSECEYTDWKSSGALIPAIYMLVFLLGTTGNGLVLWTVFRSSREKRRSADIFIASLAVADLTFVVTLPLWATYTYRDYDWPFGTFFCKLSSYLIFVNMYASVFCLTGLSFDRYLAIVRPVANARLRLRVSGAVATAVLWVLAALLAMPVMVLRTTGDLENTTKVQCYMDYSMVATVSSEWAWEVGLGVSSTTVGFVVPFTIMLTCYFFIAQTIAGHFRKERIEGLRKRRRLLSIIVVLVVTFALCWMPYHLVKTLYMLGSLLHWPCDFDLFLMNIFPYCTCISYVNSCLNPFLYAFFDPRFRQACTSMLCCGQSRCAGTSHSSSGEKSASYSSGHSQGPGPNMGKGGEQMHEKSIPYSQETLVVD
In general terms: GTPγS is a poorly hydrolysed GTP analogue; its binding reports G protein activation.
Broadly, the EC50 is the concentration giving half of the maximal effect. Take `COc1cccc(OC)c1-n1c(NS(=O)(=O)[C@@H](C)[C@@H](OC(C)C)c2ncc(C)cn2)nnc1[C@@H]1CCC(F)(F)C1` (mixture of isomers) [Example 232.0, (1S,2S)-N-(5-((1R)-3,3-difluorocyclopentyl)-4-(2,6-dimethoxyphenyl)-4H-1,2,4-triazol-3-yl)-1-(5-methyl-2-pyrimidinyl)-1-(2-propanyloxy)-2-propanesulfonamide and (1S,2S)-N-(5-((1S)-3,3-difluorocyclopentyl)-4-(2,6-dimethoxyphenyl)-4H-1,2,4-triazol-3-yl)-1-(5-methyl-2-pyrimidinyl)-1-(2-propanyloxy)-2-propanesulfonamide]: the 50% effective concentration (EC50) worked out at 42 nM.

Regarding `COc1ncnc(OC)c1-n1c(NS(=O)(=O)[C@@H](C)[C@H](OC)c2ncc(Cl)cn2)nnc1[C@H]1CC[C@H]1C(F)F` (racemic) [Example 146.0], the EC50 is 26 nM.

For the compound `COc1cccc(OC)c1-n1c(NS(=O)(=O)[C@@H](C)[C@@H](OC(C)C)c2ncc(C)cn2)nnc1[C@H]1C[C@@H](OC)C1` (racemic) [Example 227.0, (1S,2S)-N-(4-(2,6-dimethoxyphenyl)-5-(trans-3-methoxycyclobutyl)-4H-1,2,4-triazol-3-yl)-1-(5-methyl-2-pyrimidinyl)-1-(2-propanyloxy)-2-propanesulfonamide or (1S,2S)-N-(4-(2,6-dimethoxyphenyl)-5-(cis-3-methoxycyclobutyl)-4H-1,2,4-triazol-3-yl)-1-(5-methyl-2-pyrimidinyl)-1-(2-propanyloxy)-2-propanesulfonamide], the concentration for a half-maximal effect (EC50) is 2.7 nM.

As to `COc1ncnc(OC)c1-n1c(NS(=O)(=O)[C@@H](C)[C@H](OC)c2ccc(Cl)cn2)nnc1C1CCC1` (single isomer, unassigned) [Example 91.0, (1R,2S)-1-(5-chloropyridin-2-yl)-N-(5-cyclobutyl-4-(4,6-dimethoxypyrimidin-5-yl)-4H-1,2,4-triazol-3-yl)-1-methoxypropane-2-sulfonamide or (1S,2R)-1-(5-chloropyridin-2-yl)-N-(5-cyclobutyl-4-(4,6-dimethoxypyrimidin-5-yl)-4H-1,2,4-triazol-3-yl)-1-methoxypropane-2-sulfonamide], the EC50 is 2.9 nM.

As for `COc1ncnc(OC)c1-n1c(NS(=O)(=O)[C@@H](C)[C@H](OC)c2ncc(Cl)cn2)nnc1[C@H]1CC1(F)F` (single isomer, unassigned) [Example 100.0, (1R,2S)-1-(5-chloropyrimidin-2-yl)-N-(5-((R)-2,2-difluorocyclopropyl)-4-(4,6-dimethoxypyrimidin-5-yl)-4H-1,2,4-triazol-3-yl)-1-methoxypropane-2-sulfonamide or (1R,2S)-1-(5-chloropyrimidin-2-yl)-N-(5-((S)-2,2-difluorocyclopropyl)-4-(4,6-dimethoxypyrimidin-5-yl)-4H-1,2,4-triazol-3-yl)-1-methoxypropane-2-sulfonamide], the EC50 was 140 nM.

On to `COc1ncnc(OC)c1-n1c(NS(=O)(=O)[C@@H](C)[C@H](OC)c2ncc(Cl)cn2)nnc1[C@H]1CC1(F)F` (single isomer, unassigned) [Example 101.0, (1R,2S)-1-(5-chloropyrimidin-2-yl)-N-(5-((R)-2,2-difluorocyclopropyl)-4-(4,6-dimethoxypyrimidin-5-yl)-4H-1,2,4-triazol-3-yl)-1-methoxypropane-2-sulfonamide or (1R,2S)-1-(5-chloropyrimidin-2-yl)-N-(5-((S)-2,2-difluorocyclopropyl)-4-(4,6-dimethoxypyrimidin-5-yl)-4H-1,2,4-triazol-3-yl)-1-methoxypropane-2-sulfonamide], for which the 50% effective concentration (EC50) was 60 nM.

For `COc1cccc(OC)c1-n1c(NS(=O)(=O)[C@@H](C)[C@H](OC)c2ncc(Cl)cn2)nnc1[C@H]1C[C@@H](C#N)C1` (single isomer, unassigned) [Example 121.0, (1R,2S)-1-(5-chloro-2-pyrimidinyl)-N-(5-(cis-3-cyanocyclobutyl)-4-(2,6-dimethoxyphenyl)-4H-1,2,4-triazol-3-yl)-1-methoxy-2-propanesulfonamide or (1R,2S)-1-(5-chloro-2-pyrimidinyl)-N-(5-(trans-3-cyanocyclobutyl)-4-(2,6-dimethoxyphenyl)-4H-1,2,4-triazol-3-yl)-1-methoxy-2-propanesulfonamide], the EC50 is 5.4 nM.

As for `COc1cccc(OC)c1-n1c(NS(=O)(=O)[C@@H](C)[C@H](OC)c2ncc(Cl)cn2)nnc1[C@H]1C[C@@H](C#N)C1` (single isomer, unassigned) [Example 122.0, (1R,2S)-1-(5-chloro-2-pyrimidinyl)-N-(5-(cis-3-cyanocyclobutyl)-4-(2,6-dimethoxyphenyl)-4H-1,2,4-triazol-3-yl)-1-methoxy-2-propanesulfonamide or (1R,2S)-1-(5-chloro-2-pyrimidinyl)-N-(5-(trans-3-cyanocyclobutyl)-4-(2,6-dimethoxyphenyl)-4H-1,2,4-triazol-3-yl)-1-methoxy-2-propanesulfonamide], the EC50 is 28 nM.

In the case of `COc1cccc(OC)c1-n1c(NS(=O)(=O)[C@@H](C)[C@H](OC)c2ncc(Cl)cn2)nnc1[C@H]1C[C@@H](CO)C1` (single isomer, unassigned) [Example 123.0, (1R,2S)-1-(5-chloro-2-pyrimidinyl)-N-(4-(2,6-dimethoxyphenyl)-5-(cis-3-(hydroxymethyl)cyclobutyl)-4H-1,2,4-triazol-3-yl)-1-methoxy-2-propanesulfonamide or (1R,2S)-1-(5-chloro-2-pyrimidinyl)-N-(4-(2,6-dimethoxyphenyl)-5-(trans-3-(hydroxymethyl)cyclobutyl)-4H-1,2,4-triazol-3-yl)-1-methoxy-2-propanesulfonamide], the concentration for a half-maximal effect (EC50) is 5.1 nM.

As for `COc1cccc(OC)c1-n1c(NS(=O)(=O)[C@@H](C)[C@H](OC)c2ncc(Cl)cn2)nnc1[C@H]1C[C@@H](CO)C1` (single isomer, unassigned) [Example 124.0, (1R,2S)-1-(5-chloro-2-pyrimidinyl)-N-(4-(2,6-dimethoxyphenyl)-5-(cis-3-(hydroxymethyl)cyclobutyl)-4H-1,2,4-triazol-3-yl)-1-methoxy-2-propanesulfonamide or (1R,2S)-1-(5-chloro-2-pyrimidinyl)-N-(4-(2,6-dimethoxyphenyl)-5-(trans-3-(hydroxymethyl)cyclobutyl)-4H-1,2,4-triazol-3-yl)-1-methoxy-2-propanesulfonamide], the EC50 turned out to be 49 nM.

For `COCC(COC)n1c(NS(=O)(=O)[C@@H](C)[C@H](OC)c2ncc(Cl)cn2)nnc1[C@H]1C[C@H](CO)C1` (single isomer, unassigned) [Example 130.0, (1R,2S)-1-(5-chloropyrimidin-2-yl)-N-(4-(1,3-dimethoxypropan-2-yl)-5-((1r,3S)-3-(hydroxymethyl)cyclobutyl)-4H-1,2,4-triazol-3-yl)-1-methoxypropane-2-sulfonamide or (1R,2S)-1-(5-chloropyrimidin-2-yl)-N-(4-(1,3-dimethoxypropan-2-yl)-5-((1s,3R)-3-(hydroxymethyl)cyclobutyl)-4H-1,2,4-triazol-3-yl)-1-methoxypropane-2-sulfonamide], the EC50 is 1500 nM.
